{
  "source": "BindingDB's records for patent US20250099442",
  "about": "(Prothena Biosciences, 2025)",
  "note": "pIC50: −log10 of the molar value.",
  "data": [
    {"biological_target": "Dual specificity tyrosine-phosphorylation-regulated kinase 1A (Homo sapiens, UniProt Q13627)", "assay": "DYRK1A Inhibition Assay", "procedure": "Assay Procedure1. Add 5 μL enzyme & substrate mixture to each well in Column 2-23 and A24-H24 wells of the 384-well assay plate;2. Add 5 μL 0% Phosphorylation control to A1-H1 and I24-P24 wells of the assay plate;3. Add 5 μL 100% Phosphorylation control to I1-P1 wells of the assay plate;4. Spin the assay plate (1000 rpm, 1 minute @23° C.);5. Incubate enzyme with compounds for 15 minutes at 23° C.;6. Add 5 μL ATP solution to each well of the assay plate;7. Spin the plate (1000 rpm, 1 minute @23° C.);8. Incubate the assay plate for 90 minutes at 23° C.;9. Add 10 μL Development reagent A to each well of the assay plate;10. Centrifuge the plate at 1000 rpm about 15 seconds and seal a film over assay plate. Incubate the assay plate for 30 minutes at 23° C.11. Read assay plates on Envision", "values": [
      {"molecule": "CN1CCC(C#Cc2cc(-c3cn(C4CCOCC4)c4cnccc34)ccn2)CC1", "note": "[US20250099442, Compound I.91]", "pIC50": "> 8.00"},
      {"molecule": "C(#CC1CCOCC1)c1cc(-c2cn(C3CCOCC3)c3cnccc23)ccn1", "note": "[US20250099442, Compound I.92]", "pIC50": "> 8.00"},
      {"molecule": "CCN1CCC(C(=O)Nc2cc(-c3ccc4ncn(C(F)F)c4c3)ccn2)CC1", "note": "[US20250099442, Compound I.93]", "pIC50": "7.00 to 8.00"},
      {"molecule": "CCN1CCC(C(=O)Nc2cc(-c3ccc4c(c3)ncn4C(F)F)ccn2)CC1", "note": "[US20250099442, Compound I.94]", "pIC50": "< 6.00"},
      {"molecule": "OC1(C#Cc2ccc3c(-c4ccncc4)c[nH]c3n2)CCNCC1", "note": "[US20250099442, Compound I.95]", "pIC50": "6.00 to 7.00"},
      {"molecule": "CC(C)CN1CCC(O)(C#Cc2ccc3c(-c4ccncc4)c[nH]c3n2)CC1", "note": "[US20250099442, Compound I.96]", "pIC50": "6.00 to 7.00"},
      {"molecule": "CC(C)CN1CCC(C#Cc2nc3ccc(-c4ccnc(N)c4)nc3n2C2CC2)CC1", "note": "[US20250099442, Compound I.99]", "pIC50": "7.00 to 8.00"},
      {"molecule": "CC(C)CN1CCC(C#Cc2cc(-c3cn(C4CCOCC4)c4cnccc34)ccn2)CC1", "note": "[US20250099442, Compound I.100]", "pIC50": "7.00 to 8.00"},
      {"molecule": "CN1CCC(C(=O)Nc2ncc(-c3ccc4ncn(C)c4c3)s2)CC1", "note": "[US20250099442, Compound I.102]", "pIC50": "7.00 to 8.00"},
      {"molecule": "CCCOc1cc(COC2CCN(C)CC2)nc2[nH]cc(C(F)(F)F)c12", "note": "[US20250099442, Compound II.7]", "pIC50": "> 6.30"},
      {"molecule": "CC(=O)Nc1ccc2cnc(NC(=O)C3CCN(C)CC3)cc2c1", "note": "[US20250099442, Compound II.22]", "pIC50": "> 6.30"}
    ]}
  ]
}
